Test results reported in article PMC8232742, “Boswellic Acids Show In Vitro Activity against Leishmania donovani” (Molecules, 2021).
Values joined by “and” are separate entries in the source; they are usually repeats but may differ in a detail not shown here. Equal values may be shown once. Read-outs that look alike come from different tables or passages of the source.

Legend:
[1] = system: Leishmania donovani axenic amastigotes (MHOM-ET-67/L82 strain); assay: In vitro activity against L. donovani axenic amastigotes (resazurin); assay type: cell-based; details: for IC50: Leishmania donovani
Description: (§1) In vitro tests for determination of activity against axenic amastigotes of Leishmania donovani (MHOM-ET-67/L82 strain) and cytotoxicity against mammalian cells (L6-cell-line from rat skeletal myoblasts) as well as against intramacrophage amastigotes of L. donovani were conducted at Swiss TPH according to an established protocol as reported before. For a repetition of these methods, see Supplementary File.
Miltefosine (≥98%, Sigma-Aldrich, Buchs, Switzerland) and podophyllotoxin (≥98%, Sigma-Aldrich, Buchs, Switzerland) were used as positive controls. Growth inhibition assays were meant to give only preliminary information on whether fractions show any bioactivity or not. Due to this explorative nature, this was conducted once. IC50 values represent geometric means of two independent determinations and were calculated by linear regression from the sigmoidal dose inhibition curves using SoftmaxPro (Molecular Devices Cooperation, Sunnyvale, CA, USA) software.
(§2) Biological Assays (according to [14,15])
(§3) The following biological tests were performed by applying validated method s of the Swiss TPH as previously published and described below. […]
(§4) After that, resazurin solution
(§5) (12.5 mg in 100 mL water, 10 μL) was added to each well, and the incubation continued for 2–4 h more. Then, the plates were read using a Spectramax Gemini XS microplate fluorometer (Molecular Devices Cooperation, Sunnyvale, CA, USA) and excitation and emission wavelengths of 536 and 588 nm, respectively. Data were analyzed with the software Softmax Pro (Molecular Devices Cooperation, Sunnyvale, CA, USA), which calculated IC50 values by linear regression and 4‐parameter logistic regression from the sigmoidal dose inhibition curves. […]
In vitro activity against L. donovani axenic amastigotes. Amastigotes of L. donovani strain MHOM/ET/67/L82 were grown in axenic culture at 37 °C in SM medium at pH 5.4 supplemented with 10% heat‐inactivated fetal bovine serum under a 5% CO2 atmosphere. Aliquots containing […] amastigotes from the axenic culture (100 μL), with or without a serial compound dilution (as specified before), were seeded in 96‐well plates. After 70 h of incubation, the plates were inspected under an inverted microscope to assure growth of the controls and sterile conditions.
Then, resazurin solution (12.5 mg in 100 mL water, 10 μL) was added to each well and the plates incubated for another 2 h. Finally, the plates were read using the same conditions mentioned for T. brucei rhodesiense. Data were analyzed in the same way. Miltefosine was used as positive control. […]
(§6) Netherlands). Compounds were diluted with medium as indicated above before being added to parasite cultures incubated in RPMI 1640 medium without hypoxanthine, supplemented with HEPES (5.94 g/L), NaHCO3 (2.1 g/L), neomycin (100 U/mL), AlbumaxR (5 g/L) and washed human red cells A+ at 2.5% hematocrit (0.3% parasitemia).
Serial compound dilutions were prepared as before. The 96‐well plates were incubated in a humidified atmosphere at 37 °C; 4% CO2, 3% O2, 93% N2. After 48 h, 50 μL of 3H‐hypoxanthine (0.5 μCi) was added to each well of the plate. The plates were incubated for a further 24 h under the same conditions. […] The dried filters were inserted into a plastic foil with 10 mL of scintillation fluid and counted in a Betaplate™ liquid scintillation counter (Wallac, Zurich, Switzerland). […]

[2] = In vitro cytotoxicity with L-6 cells (resazurin); assay type: cell-based; details: rat, read-out: Cytotoxicity against L6 Rat Skeletal Myoblasts IC50
Description: as §1, §2, §3, §4, §5
Aliquots containing 105 amastigotes from the axenic culture (100 μL), with or without a serial compound dilution (as specified before), were seeded in 96‐well plates. After 70 h of incubation, the plates were inspected under an inverted microscope to assure growth of the controls and sterile conditions. […]
as §6
Serial compound dilutions were prepared as before. The 96‐well plates were incubated in a humidified atmosphere at 37 °C; 4% CO2, 3% O2, 93% N2. After 48 h, 50 μL of 3H‐hypoxanthine (0.5 μCi) was added to each well of the plate. The plates were incubated for a further 24 h under the same conditions. The plates were then harvested with a Betaplate™ cell harvester (Wallac, Zurich, Switzerland), and the red blood cells were transferred onto a glass fiber filter then washed with distilled water. The dried filters were inserted into a plastic foil with 10 mL of scintillation fluid and counted in a Betaplate™ liquid scintillation counter (Wallac, Zurich, Switzerland). […]
(§7) Serial compound dilutions prepared, as before, were us ed. […] Finally, the plates were read, and the data were treated as mentioned before. […]
(§8) Extracellular amast igotes were removed by triplicate washing after further 24 h. […] Images of the plates were recorded with an ImageXpress XLS (MD) microscope and automatically analyzed using the MetaXpress Software. […]

[3] = system: Leishmania donovani intracellular amastigotes; assay: In vitro activity against intracellular amastigotes of L. donovani in peritoneal murine macrophages; assay type: cell-based; details: Macrophage
Description: as §1, §2, §3
Serial compound dilutions were prepared as before. […] The dried filters were inserted into a plastic foil with 10 mL of scintillation fluid and counted in a Betaplate™ liquid scintillation counter (Wallac, Zurich, Switzerland). […]
as §7
as §8, with “Software. Infected and non‐infected macrophages, as well as the number of intracellular parasites, were recorded.” for “Software.”

[4] = system: Leishmania donovani axenic amastigotes (MHOM-ET-67/L82 strain); set-up: method as in PMID 21157686; details: cited from earlier work
[5] = system: P. falciparum NF54 strain erythrocytic stages; set-up: method as in PMID 21157686; details: cited from earlier work
[6] = geometric mean of two independent determinations
[7] = geometric mean of two independent determinations (lower; upper)

IC50 [3]	SMILES	SI (selectivity index) ([1]; L6 cytotoxicity vs L. donovani axenic amastigotes)	IC50 [1, 6] [nM]	IC50 [1, 7] [µg/mL]	IC50 at 70 h [2, 7] [µg/mL]	IC50 at 70 h [2, 6] [µM]	activity against L. donovani axenic amastigotes [4]	antiplasmodial activity in vitro [5]
–	C[C@H]1[C@H](C)CC[C@]2(C)CC[C@]3(C)C(=CC[C@@H]4[C@@]5(C)CC[C@@H](O)[C@](C)(C(=O)O)[C@@H]5CC[C@]43C)[C@H]12 [Compound 3, β-boswellic acid]	6.2	5300	2.4	15	33	–	–
–	COc1cc([C@@H]2c3cc4c(cc3[C@H](O)[C@H]3COC(=O)[C@H]23)OCO4)cc(OC)c1OC [PCP, podophyllotoxin]	–	–	–	0.009	0.02	–	–
1.9 µg/mL and 4.7 µM	CCCCCCCCCCCCCCCCOP(=O)([O-])OCC[N+](C)(C)C [PCM, miltefosine]	–	120	0.047	–	–	–	–
–	C/C1=C\CC/C(C)=C/C[C@](O)(C(C)C)CC/C(C)=C/CC1 [Serratol]	–	–	–	–	–	essentially inactive	antiplasmodial activity
